# Data from PubChem BioAssay (NCI).
#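 Cultured in 96-well plates, cells were exposed to test compound for 48 hours across five concentrations. The concentration for full growth arrest is given as TGI.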
# Tested on: PC-3 prostate
# Test: DTP human tumour cell line panel, 48 h
row,Structure (SMILES),TGI [µM]
1,CC1(C)OC[C@@H](O)[C@H](C#N)CO1,> 100
2,CCOc1ccc(/C=C2\N=C(c3ccc([N+](=O)[O-])cc3)OC2=O)cc1,> 100
3,CSc1cc(-c2cccs2)sc1-c1cc(SC)c(-c2sc(-c3sc(-c4cccs4)cc3SC)cc2SC)s1,> 100
4,CCC(C)(C)c1ccc(OCCCCNC(=O)c2ccc3ccccc3c2O)c(C(C)(C)CC)c1,49.7

# Tested on: UACC-62 melanoma
# Test: DTP human tumour cell line panel, 48 h
row,Structure (SMILES),TGI [µM]
1,CN1CCOC1c1ccccc1O (centres undefined),> 100
2,CCNC(=S)NNC(=O)C12CC3CC(CC(C3)C1)C2,> 100
3,CCN(CC)CCNc1nc(N)c(C#N)c(C#N)c1C#N,> 10
4,CC1(C)OC[C@@H](O)[C@H](C#N)CO1,> 100
5,CCOc1ccc(/C=C2\N=C(c3ccc([N+](=O)[O-])cc3)OC2=O)cc1,> 100
6,CSc1cc(-c2cccs2)sc1-c1cc(SC)c(-c2sc(-c3sc(-c4cccs4)cc3SC)cc2SC)s1,> 100
7,CCC(C)(C)c1ccc(OCCCCNC(=O)c2ccc3ccccc3c2O)c(C(C)(C)CC)c1,92.4

# Tested on: DU-145 prostate
# Test: DTP human tumour cell line panel, 48 h
row,Structure (SMILES),TGI [µM]
1,CCNC(=S)NNC(=O)C12CC3CC(CC(C3)C1)C2,> 100
2,CCN(CC)CCNc1nc(N)c(C#N)c(C#N)c1C#N,> 10
3,CC1(C)OC[C@@H](O)[C@H](C#N)CO1,> 100
4,CCOc1ccc(/C=C2\N=C(c3ccc([N+](=O)[O-])cc3)OC2=O)cc1,> 100
5,CSc1cc(-c2cccs2)sc1-c1cc(SC)c(-c2sc(-c3sc(-c4cccs4)cc3SC)cc2SC)s1,> 100
6,CCC(C)(C)c1ccc(OCCCCNC(=O)c2ccc3ccccc3c2O)c(C(C)(C)CC)c1,> 100

# Tested on: KM12 colon
# Test: DTP human tumour cell line panel, 48 h
row,Structure (SMILES),TGI [µM]
1,CN1CCOC1c1ccccc1O (centres undefined),> 100
2,CCNC(=S)NNC(=O)C12CC3CC(CC(C3)C1)C2,> 100
3,CCN(CC)CCNc1nc(N)c(C#N)c(C#N)c1C#N,> 10
4,CC1(C)OC[C@@H](O)[C@H](C#N)CO1,> 100
5,CCOc1ccc(/C=C2\N=C(c3ccc([N+](=O)[O-])cc3)OC2=O)cc1,> 100
6,CSc1cc(-c2cccs2)sc1-c1cc(SC)c(-c2sc(-c3sc(-c4cccs4)cc3SC)cc2SC)s1,> 100
7,CCC(C)(C)c1ccc(OCCCCNC(=O)c2ccc3ccccc3c2O)c(C(C)(C)CC)c1,> 100

# Tested on: HT29 colon
# Test: DTP human tumour cell line panel, 48 h
row,Structure (SMILES),TGI [µM]
1,CN1CCOC1c1ccccc1O (centres undefined),> 100
2,CCNC(=S)NNC(=O)C12CC3CC(CC(C3)C1)C2,> 100
3,CCN(CC)CCNc1nc(N)c(C#N)c(C#N)c1C#N,> 10
4,CC1(C)OC[C@@H](O)[C@H](C#N)CO1,> 100
5,CCOc1ccc(/C=C2\N=C(c3ccc([N+](=O)[O-])cc3)OC2=O)cc1,> 100
6,CSc1cc(-c2cccs2)sc1-c1cc(SC)c(-c2sc(-c3sc(-c4cccs4)cc3SC)cc2SC)s1,> 100
7,CCC(C)(C)c1ccc(OCCCCNC(=O)c2ccc3ccccc3c2O)c(C(C)(C)CC)c1,> 100

# Tested on: HOP-62 NSCLC
# Test: DTP human tumour cell line panel, 48 h
row,Structure (SMILES),TGI [µM]
1,CN1CCOC1c1ccccc1O (centres undefined),> 100
2,CCNC(=S)NNC(=O)C12CC3CC(CC(C3)C1)C2,> 100
3,CCN(CC)CCNc1nc(N)c(C#N)c(C#N)c1C#N,> 10
4,CC1(C)OC[C@@H](O)[C@H](C#N)CO1,> 100
5,CCOc1ccc(/C=C2\N=C(c3ccc([N+](=O)[O-])cc3)OC2=O)cc1,> 100
6,CSc1cc(-c2cccs2)sc1-c1cc(SC)c(-c2sc(-c3sc(-c4cccs4)cc3SC)cc2SC)s1,> 100
7,CCC(C)(C)c1ccc(OCCCCNC(=O)c2ccc3ccccc3c2O)c(C(C)(C)CC)c1,> 100

# Tested on: HOP-92 NSCLC
# Test: DTP human tumour cell line panel, 48 h
row,Structure (SMILES),TGI [µM]
1,CN1CCOC1c1ccccc1O (centres undefined),> 100
2,CCN(CC)CCNc1nc(N)c(C#N)c(C#N)c1C#N,> 10
3,CCOc1ccc(/C=C2\N=C(c3ccc([N+](=O)[O-])cc3)OC2=O)cc1,> 100
4,CSc1cc(-c2cccs2)sc1-c1cc(SC)c(-c2sc(-c3sc(-c4cccs4)cc3SC)cc2SC)s1,> 100

# Tested on: NCI-H226 lung
# Test: DTP human tumour cell line panel, 48 h
row,Structure (SMILES),TGI [µM]
1,CN1CCOC1c1ccccc1O (centres undefined),> 100
2,CCNC(=S)NNC(=O)C12CC3CC(CC(C3)C1)C2,> 100
3,CCN(CC)CCNc1nc(N)c(C#N)c(C#N)c1C#N,> 10
4,CC1(C)OC[C@@H](O)[C@H](C#N)CO1,> 100
5,CCOc1ccc(/C=C2\N=C(c3ccc([N+](=O)[O-])cc3)OC2=O)cc1,> 100
6,CCC(C)(C)c1ccc(OCCCCNC(=O)c2ccc3ccccc3c2O)c(C(C)(C)CC)c1,44.7

# Tested on: SK-OV-3 ovarian
# Test: DTP human tumour cell line panel, 48 h
row,Structure (SMILES),TGI [µM]
1,CN1CCOC1c1ccccc1O (centres undefined),> 100
